Results on 28 compounds are retold here after US9296723B2, “NAMPT inhibitors” (AbbVie Inc., priority 2012, dated 2016).

SMILES strings stand for the structures.

One test deals with NAMPT (Homo sapiens, UniProt P43490). As to the kind of experiment: Time-Resolved Fluorescence Resonance Energy Transfer (TR-FRET) Binding Assay of NAMPT. The settings on record: 6.8 nM NAMPT, 200 nM probe, equilibrated 3 hours, no substrates. The procedure: Determination of the utility of compounds having Formula (I) as binders to and inhibitors of NAMPT was performed using Time-Resolved Fluorescence Resonance Energy Transfer (TR-FRET) binding assays.
Time-Resolved Fluorescence Resonance Energy Transfer (TR-FRET) Binding Assay of NAMPT
Six L were transferred to 384-well low-volume plates ([…] #3673). To this, 12 L of a 1.5× solution containing enzyme, probe and antibody were added. […] Reactions were equilibrated at room temperature for 3 hours prior to reading on an Envision multi-label plate reader (Perkin Elmer; Ex=337 nm, Em=520 and 495 nm). Time-resolved FRET ratios (Em520/Em495) were normalized to controls, plotted as a function of compound concentration and fit with the four-parameter logistic equation to determine IC50s.
In general terms: TR-FRET usually uses a lanthanide donor and a delayed reading to cut background.

The subject of another test is PC3 cells. Put plainly: NAMPT Cell Proliferation Assay (Cell Titer Glo). The settings on record: Homo sapiens, PC-3, 120 h, incubated 5 days, cell viability. It counts as cell-based. The procedure:
NAMPT Cell Proliferation Assay
PC3 cells were seeded in 96-well black plates (Corning #3904) at 500 cells/well in 90 µl of RPMI media containing 10% heat-inactivated FBS and incubated overnight at 37° C. and 5% CO2 to allow cells to attach to wells. The following day, test compounds were serially diluted in neat DMSO to 1000× final concentrations prior to dilution with RPMI media to 10× and 1% DMSO. Ten L of the 10× compounds were then transferred to wells containing cells to produce a dose response of 10-fold dilutions from […]. Cells were incubated for 5 days at 37° C. and 5% CO2, then cell viability was measured using Cell Titer Glo reagent (Promega #G7571). Percent inhibition values were calculated and fitted to a sigmoidal dose response curves using Assay Explorer software to determine IC50s.
Background: In ATP-based viability assays light output follows the ATP content of the culture.

Chain of NAMPT (P43490 whole entry): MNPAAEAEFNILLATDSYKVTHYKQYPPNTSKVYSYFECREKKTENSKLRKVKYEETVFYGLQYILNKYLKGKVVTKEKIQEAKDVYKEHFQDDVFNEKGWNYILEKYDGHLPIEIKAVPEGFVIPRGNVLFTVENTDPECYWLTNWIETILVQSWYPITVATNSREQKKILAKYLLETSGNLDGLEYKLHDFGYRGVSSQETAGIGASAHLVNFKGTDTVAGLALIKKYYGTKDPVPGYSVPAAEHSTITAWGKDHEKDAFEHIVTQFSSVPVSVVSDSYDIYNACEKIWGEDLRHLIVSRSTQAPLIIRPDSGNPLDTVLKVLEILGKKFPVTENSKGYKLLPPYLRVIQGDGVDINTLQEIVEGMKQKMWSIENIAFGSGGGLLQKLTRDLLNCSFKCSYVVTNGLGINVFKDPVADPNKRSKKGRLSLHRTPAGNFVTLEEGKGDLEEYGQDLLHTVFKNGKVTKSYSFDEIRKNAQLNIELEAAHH

For orientation: IC50 means the concentration at which inhibition is half-maximal. High values mean a need for much substance, low ones inhibition by little substance. For the compound `O=C(Nc1ccc(OC2CCN(C(=O)[C@H]3CCCO3)CC2)cc1)N1CC(c2cccnc2)C1` [Example 5, 3-(pyridin-3-yl)-N-[4-({1-[(2R)-tetrahydrofuran-2-ylcarbonyl]piperidin-4-yl}oxy)phenyl]azetidine-1-carboxamide], the 50% inhibitory concentration (IC50) at NAMPT worked out at 56.8 nM; in the test on PC3 cells it was 28.3 nM.
Turning to `Cn1cccc1C(=O)N1CCC(Oc2ccc(NC(=O)N3CC(c4cccnc4)C3)cc2)CC1` [Example 36, N-[4-({1-[(1-methyl-1H-pyrrol-2-yl)carbonyl]piperidin-4-yl}oxy)phenyl]-3-(pyridin-3-yl)azetidine-1-carboxamide], the figures for the IC50 at NAMPT and with PC3 cells were 27.3 nM and 59.5 nM, respectively.
`COCC(=O)N1CCC(Oc2ccc(NC(=O)N3CC(c4cccnc4)C3)cc2)CC1` [Example 48, N-(4-{[1-(methoxyacetyl)piperidin-4-yl]oxy}phenyl)-3-(pyridin-3-yl)azetidine-1-carboxamide]: the IC50 on NAMPT was 206 nM; with PC3 cells, 95.8 nM.
As for `O=C(CC1CCOCC1)N1CCC(c2ccc(NC(=O)N3CC(c4cccnc4)C3)cc2)CC1` [Example 50, 3-(pyridin-3-yl)-N-{4-[1-(tetrahydro-2H-pyran-4-ylacetyl)piperidin-4-yl]phenyl}azetidine-1-carboxamide], the IC50 stood at 15.6 nM at NAMPT and 8.57 nM in the test with PC3 cells.
In the same order, the values of `O=C(Nc1ccc(C2CCN(C(=O)[C@@H]3CCCO3)CC2)cc1)N1CC(c2cccnc2)C1` [Example 52, 3-(pyridin-3-yl)-N-(4-{1-[(2S)-tetrahydrofuran-2-ylcarbonyl]piperidin-4-yl}phenyl)azetidine-1-carboxamide] are 38.9 nM and 6.78 nM.
Regarding `O=C(Nc1ccc(C2CCN(C(=O)[C@H]3CCCO3)CC2)cc1)N1CC(c2cccnc2)C1` [Example 54, 3-(pyridin-3-yl)-N-(4-{1-[(2R)-tetrahydrofuran-2-ylcarbonyl]piperidin-4-yl}phenyl)azetidine-1-carboxamide], the IC50 at NAMPT is 117 nM; with PC3 cells, 58.9 nM.
The corresponding values for `O=C(CC1CC1)N1CCC(c2ccc(NC(=O)N3CC(c4cccnc4)C3)cc2)CC1` [Example 55, N-{4-[1-(cyclopropylacetyl)piperidin-4-yl]phenyl}-3-(pyridin-3-yl)azetidine-1-carboxamide] are 29.3 nM and 8.06 nM.
As to `CC(C)C(=O)N1CCC(c2ccc(NC(=O)N3CC(c4cccnc4)C3)cc2)CC1` [Example 56, N-{4-[1-(2-methylpropanoyl)piperidin-4-yl]phenyl}-3-(pyridin-3-yl)azetidine-1-carboxamide], the figures for the IC50 on NAMPT and with PC3 cells were 27.4 nM and 8.83 nM, respectively.
With `O=C(CC(F)(F)F)N1CCC(c2ccc(NC(=O)N3CC(c4cccnc4)C3)cc2)CC1` [Example 58, 3-(pyridin-3-yl)-N-{4-[1-(3,3,3-trifluoropropanoyl)piperidin-4-yl]phenyl}azetidine-1-carboxamide], the half-maximal inhibitory concentration (IC50) at NAMPT came to 17.4 nM; with PC3 cells, 7.86 nM.
As to `CC(C)(C)OC(=O)N1CC[C@@H](Oc2ccc(NC(=O)N3CC(c4cccnc4)C3)cc2)C1` [Example 60, tert-butyl (3R)-3-[4-({[3-(pyridin-3-yl)azetidin-1-yl]carbonyl}amino)phenoxy]pyrrolidine-1-carboxylate], the figures for the concentration for half-maximal inhibition (IC50) on NAMPT and in the test on PC3 cells were 55.4 nM and 74.9 nM, respectively.
Regarding `CC(C)C(=O)N1CCC(c2ccc(NC(=O)N3CC(c4cccnc4)C3)cc2)C1` (stereo not drawn) [Example 65, N-{4-[1-(2-methylpropanoyl)pyrrolidin-3-yl]phenyl}-3-(pyridin-3-yl)azetidine-1-carboxamide], the IC50 was 56.6 nM at NAMPT and 62.2 nM in the test with PC3 cells.
On to `O=C(Nc1ccc(C2CCN(C(=O)[C@@H]3CCCO3)C2)cc1)N1CC(c2cccnc2)C1` (stereo partly drawn) [Example 66, 3-(pyridin-3-yl)-N-(4-{1-[(2S)-tetrahydrofuran-2-ylcarbonyl]pyrrolidin-3-yl}phenyl)azetidine-1-carboxamide], for which the IC50 at NAMPT was 86 nM; in the test with PC3 cells it was 82.2 nM.
As for `O=C(Nc1ccc(C2CCN(C(=O)C3CCOC3)C2)cc1)N1CC(c2cccnc2)C1` (stereo not drawn) [Example 68, 3-(pyridin-3-yl)-N-{4-[1-(tetrahydrofuran-3-ylcarbonyl)pyrrolidin-3-yl]phenyl}azetidine-1-carboxamide], the values for the IC50 at NAMPT and with PC3 cells were 86.2 nM and 59.1 nM, respectively.
For `O=C(CC1CC1)N1CCC(c2ccc(NC(=O)N3CC(c4cccnc4)C3)cc2)C1` (stereo not drawn) [Example 69, N-{4-[1-(cyclopropylacetyl)pyrrolidin-3-yl]phenyl}-3-(pyridin-3-yl)azetidine-1-carboxamide], the half-maximal inhibitory concentration (IC50) is 44.8 nM at NAMPT and 61.3 nM in the test with PC3 cells.
On to `O=C(CC1CCOCC1)N1CC[C@@H](Oc2ccc(NC(=O)N3CC(c4cccnc4)C3)cc2)C1` [Example 76, 3-(pyridin-3-yl)-N-(4-{[(3R)-1-(tetrahydro-2H-pyran-4-ylacetyl)pyrrolidin-3-yl]oxy}phenyl)azetidine-1-carboxamide], for which the IC50 turned out to be 83.6 nM at NAMPT and 22.4 nM in the test on PC3 cells.
With `CC(C)C(=O)N1CC[C@@H](Oc2ccc(NC(=O)N3CC(c4cccnc4)C3)cc2)C1` [Example 77, N-(4-{[(3R)-1-(2-methylpropanoyl)pyrrolidin-3-yl]oxy}phenyl)-3-(pyridin-3-yl)azetidine-1-carboxamide], the IC50 on NAMPT came to 61.9 nM; in the test on PC3 cells, 17.3 nM.
`O=C(Nc1ccc(O[C@@H]2CCN(C(=O)[C@H]3CCCO3)C2)cc1)N1CC(c2cccnc2)C1` [Example 79, 3-(pyridin-3-yl)-N-[4-({(3R)-1-[(2R)-tetrahydrofuran-2-ylcarbonyl]pyrrolidin-3-yl}oxy)phenyl]azetidine-1-carboxamide]: the 50% inhibitory concentration (IC50) is 92.9 nM on NAMPT and 41.4 nM in the test with PC3 cells.
Take `CC1(C(=O)N2CCC(c3ccc(NC(=O)N4CC(c5cccnn5)C4)cc3)CC2)CC1` [Example 346, N-(4-{1-[(1-methylcyclopropyl)carbonyl]piperidin-4-yl}phenyl)-3-(pyridazin-3-yl)azetidine-1-carboxamide]: the IC50 in the test on PC3 cells came to 843 nM. This lies in the sub-micromolar range.
The same measure, in the same setting: the figure for `O=C(CC1CC1)N1CCC(c2ccc(NC(=O)N3CC(c4cccnn4)C3)cc2)CC1` [Example 347, N-{4-[1-(cyclopropylacetyl)piperidin-4-yl]phenyl}-3-(pyridazin-3-yl)azetidine-1-carboxamide] is 1550 nM; for `O=C(Nc1ccc(CC2CCN(C(=O)c3ccccc3)CC2)cc1)N1CC(c2cccnn2)C1` [Example 348, N-{4-[(1-benzoylpiperidin-4-yl)methyl]phenyl}-3-(pyridazin-3-yl)azetidine-1-carboxamide] it is 803 nM; for `O=C(Nc1ccc(CC2CCN(C(=O)c3ccccc3F)CC2)cc1)N1CC(c2cccnn2)C1` [Example 349, N-(4-{[1-(2-fluorobenzoyl)piperidin-4-yl]methyl}phenyl)-3-(pyridazin-3-yl)azetidine-1-carboxamide] it is 772 nM.
Take `CC(C)(C)C(=O)N1CCC(Cc2ccc(NC(=O)N3CC(c4cccnn4)C3)cc2)CC1` [Example 350, N-(4-{[1-(2,2-dimethylpropanoyl)piperidin-4-yl]methyl}phenyl)-3-(pyridazin-3-yl)azetidine-1-carboxamide]: in the test on PC3 cells, the IC50 was 743 nM.
In turn, `CC(C)(C)CC(=O)N1CCC(Cc2ccc(NC(=O)N3CC(c4cccnn4)C3)cc2)CC1` [Example 351, N-(4-{[1-(3,3-dimethylbutanoyl)piperidin-4-yl]methyl}phenyl)-3-(pyridazin-3-yl)azetidine-1-carboxamide] yielded an IC50 in the test on PC3 cells of 655 nM.
Compound `CCC(CC)C(=O)N1CCC(Cc2ccc(NC(=O)N3CC(c4cccnn4)C3)cc2)CC1` [Example 352, N-(4-{[1-(2-ethylbutanoyl)piperidin-4-yl]methyl}phenyl)-3-(pyridazin-3-yl)azetidine-1-carboxamide] had a half-maximal inhibitory concentration (IC50) in the test with PC3 cells of 607 nM.
As for `CC(C)C(=O)N1CCC(Cc2ccc(NC(=O)N3CC(c4cccnn4)C3)cc2)CC1` [Example 354, N-(4-{[1-(2-methylpropanoyl)piperidin-4-yl]methyl}phenyl)-3-(pyridazin-3-yl)azetidine-1-carboxamide], the half-maximal inhibitory concentration (IC50) in the test with PC3 cells was determined as 994 nM.
In turn, `CC(=O)N1CCC(Cc2ccc(NC(=O)N3CC(c4cccnn4)C3)cc2)CC1` [Example 355, N-{4-[(1-acetylpiperidin-4-yl)methyl]phenyl}-3-(pyridazin-3-yl)azetidine-1-carboxamide] had an IC50 in the test with PC3 cells of 7310 nM.
As for `CC[C@H](C)C(=O)N1CCC(Cc2ccc(NC(=O)N3CC(c4cccnn4)C3)cc2)CC1` [Example 356, N-[4-({1-[(2S)-2-methylbutanoyl]piperidin-4-yl}methyl)phenyl]-3-(pyridazin-3-yl)azetidine-1-carboxamide], in the test on PC3 cells, the IC50 came to 791 nM. This IC50 is about 9.2-fold lower than that of the compound before.
Regarding `CC1(C(=O)N2CCC(Cc3ccc(NC(=O)N4CC(c5cccnn5)C4)cc3)CC2)CC1` [Example 357, N-[4-({1-[(1-methylcyclopropyl)carbonyl]piperidin-4-yl}methyl)phenyl]-3-(pyridazin-3-yl)azetidine-1-carboxamide], 703 nM corresponded to half-maximal inhibition with PC3 cells (IC50).
